Experimental findings from patent US20240400692A1, “CELIAC DISEASE EPITOPES” (NEXTERA AS, priority 2021, published 2024) are described below.

One experiment deals with T1, chymotrypsin (Bos taurus, UniProt P00766).
T1 construct: purchased Sigma; host or cells: substrate gliadin: E. coli BL21 (DE3)pLysS, made by Genscript
Put plainly: In vitro chymotrypsin digest and mass spectrometry of recombinant gliadin. The conditions noted are these: chymotrypsin 200:1 (w:w), 37° C., 24h; MS; FIG. 9E. The text has this: Assessment of in vitro chymotrypsin proteolysis of the A0A0E3SZN6_TRIUA protein. The T. aestivum Q9M4L6_WHEAT (A), T. urartu A0A0E3SZN6_TRIUA (B) and T. aestivum Q9FUW7_WHEAT (C) proteins where produced and affinity purified from E. coli, followed by in vitro chymotrypsin digest and mass spectrometry analysis of the resulting peptide segments (D, E and F). The anticipated 9-mer core regions of the relevant epitopes are indicated by enumeration (D, E and F). Panel A: SDS-PAGE and Western blot analysis of Q9M4L6_WHEAT. Lane M1: Protein Marker, GenScript, Cat. No. M00516, Lane M2: Protein Marker, GenScript, Cat. No. M00521, Lane 1: BSA ([…]), Lane 2: Q9M4L6_WHEAT (Reducing condition, […]), Lane 3: Q9M4L6_WHEAT (Non-reducing condition, 2.00 μg), Lane 4: Q9M4L6_WHEAT (Reducing condition), Lane 5: Q9M4L6_WHEAT (Non-reducing condition), Primary antibody: Mouse-anti-His mAb (GenScript, Cat. No. A00186). Panel B: SDS-PAGE and Western blot analysis of A0A0E3SZN6_TRIUA. […]
Recombinant gliadins were in vitro chymotrypsin digested essentially as described (Molberg O, et al., Methods Mol Med. 2000; 41:105-24). […] MS spectra were analyzed by using the PEAKS studio software (Bioinformatics Solutions Inc.) searched against a custom databased made by the respective gliadin Uniprot accession codes.

The test system of experiment [1] is T cells in HLA-DQ2.5 typed PBMCs. Put plainly: Intracellular IFN-γ flow assay of peptide-stimulated PBMCs. Format: cell-based, human. The conditions noted are these: for expansion of IFN-γ positive cells in the CD3+/CD4− cell population / expansion of IFN-γ positive CD4 T cells, CeD donor: 20 μM peptide; for expansion of IFN-γ positive cells in the CD3+/CD4− cell population / expansion of IFN-γ positive CD4 T cells, CeD donor / presence of response in tested CeD PBMC material / responses in healthy controls: 48h; for expansion of IFN-γ positive cells in the CD3+/CD4− cell population: FIG. 14C; for peptide reactivity, CeD donor 595: no statistical difference; for expansion of IFN-γ positive CD4 T cells, CeD donor: CeD donor 595, average, FIG. 14B; for presence of response in tested CeD PBMC material: CeD donors 585, 595 and 600; for presence of response in tested CeD PBMC material / responses in healthy controls: 20 μM; for responses in healthy controls: two HCs (557 and 558), FIG. 15B. The text has this:
Intracellular IFNγ flow assessment of CD4 T cell peptide stimulatory capacity using PBMCs. Cryopreserved HLA-DQ2.5 typed PBMCs from confirmed healthy controls (HC) and CeD patients were purchased (HemaCare-Cellero) and used in autologous in vitro T cell peptide stimulation assays followed by intracellular IFNγ staining in flow. (A) PBMCs from CeD donor 595 were used to set intracellular IFNγ baseline detection gates on CD3/CD4 T cells using anti-IFNγ-PE. (B and C) Bar graph representing intracellular IFNγ detection in CD4+/IFNγ+(B) and CD4−/IFNγ+(C) gates as illustrated in A. PBMCs from CeD donor 595 and HC 575 were stimulated with 20 μM DQ2.5-glia 33-mer (N-[…]-C(SEQ ID NO:59)) and A0A0E3SZN6_p6E_long (N-[…]-C(SEQ ID NO:30)), for 48h followed by intracellular T cell IFNγ detection.
Intracellular IFN-γ flow assessment of CD4 T cell peptide stimulatory capacity using PBMCs. Cryopreserved HLA-DQ2.5 typed PBMCs from confirmed healthy controls (HC) and CeD patients were purchased (HemaCare-Cellero) and used in autologous in vitro T cell peptide stimulation assays followed by intracellular IFN-γ staining in flow. Intracellular IFN-γ baseline detection gates on CD3/CD4 T cells using anti-IFN-γ-PE were set as in FIG. 14.
PBMCs from CeD donors (585, 595 and 600) and HCs (557 and 558) were stimulated with 20 μM DQ2.5-glia 33-mer (N-[…]-C(SEQ ID NO:59)) and A0A0E3SZN6_p6E_long (N-[…]-C(SEQ ID NO:30)), for 48h followed by intracellular T cell IFN-γ detection (A and B). Values are presented as mean values and ±SEM.
Peptide-stimulated PBMCs were assessed for intracellular IFN-γ following reagents and the standard protocol from BioLegend (https://www.biolegend.com/). Briefly, cryopreserved human HLA-DQ2.5^+ PBMCs (HemaCare-Cellero) where gently thawed and washed in ice-cold PBS before resuspended into RPMI1640 supplemented with 10% FCS (v/v) before volumes of 1 ml (about 2×10^7 cells) were aliquoted into a 24-well microtiter plate (NUNC). One set of wells received either 20 μM of peptide (either A0A0E3SZN6_p6E_long ([…] (SEQ ID NO:30)) or 33-mer ([…] ([…]))). […] The cells were grown at standard conditions at 37° C. for 36h before Brefaldin A (BioLegend) and Monensin (BioLegend) was added, and incubation continued for another 12 h. The cells were then assessed for intracellular IFN-γ by flow. Data was acquired on a BD Accuri C6 cytometer (BD Biosciences) and analyzed using FlowJo software V10 (Tree Star).

Experiment [2] has the same test system. The experiment is described as above. It is filed as cell-based, human. The conditions noted are these: HC donor 557; 20 μM peptide; 48h; FIG. 14B.
Another experiment has as its system 107 antibody. Put plainly: FACS of antibody binding to peptides pulsed onto DQ2.5+ Raji cells, 107 antibody. Format: cell-based. The conditions noted are these: 50 μM peptide pulsed onto human DQ2.5+ Raji cells. As for the experimental part:
(§1) Assessment of antibody binding to the A0A0E3SZN6_TRIUA epitope candidate. […] The indicated peptides (50 μM) were pulsed onto human DQ2.5*Raji cells and antibody binding was tested in FACS as described (B).
(§2) Assessment of antibody binding to the physiological relevant forms of the A0A0E3SZN6_TRIUA epitope candidate. The T. urartuA0A0E3SZN6_TRIUA (A) and T. aestivum Q9M4L6_WHEAT (B) sequences were in silico digested with tryspin and chymotrypsin, and the relevant digested fragments shown underlined (A and B). […] The known P positions are indicated (C). The indicated peptides were pulsed (50 μM) onto human DQ2.5*Raji cells and antibody binding was tested in FACS as described (D).
(§3) To identify putative gliadin-derived sequences different from, but with similarity to, the 30 DOQ.2.5-glia-α1a epitope (PFPQP{right arrow over (E)}LPY (SEQ ID NO:4)), the UniProtKB protein database was searched using the ScanProsite tool (https://prosite.expasyorg/scanprosite/). […] More specifically, we fixed the proline (P) in p1, the glutamine (Q) in p6, the tyrosine (Y) in p9, and P was disallowed in the position p10 after the p9 Y (underlined). To focus the output of the searches, we restricted the output to the Triticum taxonomic group. […] In some cases, Q residues were exchanged with glutamate (E) in the peptide synthesis in order to mimic positional deamidation.

The next experiment deals with 4.7C antibody. Put plainly: FACS of antibody binding to peptides pulsed onto DQ2.5+ Raji cells, 4.7C antibody. The conditions noted are these: 50 μM peptide pulsed onto human DQ2.5+ Raji cells. Format: cell-based. As for the experimental part: as §1, §2, §3
Sequence of 4.7C antibody (as listed by the source, other chains not shown): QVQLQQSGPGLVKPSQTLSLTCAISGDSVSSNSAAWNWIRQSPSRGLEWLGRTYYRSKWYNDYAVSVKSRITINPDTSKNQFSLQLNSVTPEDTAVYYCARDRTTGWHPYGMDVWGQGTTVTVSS
Sequence of 4.7C antibody (as listed by the source, other chains not shown): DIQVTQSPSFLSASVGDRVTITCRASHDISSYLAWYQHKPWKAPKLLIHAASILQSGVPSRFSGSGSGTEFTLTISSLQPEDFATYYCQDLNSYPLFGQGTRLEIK
Setting [3] is: A0A0E3SZN6 peptide versus 33-mer, FIG. 15A.

Sequence of 107 antibody (as listed by the source, other chains not shown): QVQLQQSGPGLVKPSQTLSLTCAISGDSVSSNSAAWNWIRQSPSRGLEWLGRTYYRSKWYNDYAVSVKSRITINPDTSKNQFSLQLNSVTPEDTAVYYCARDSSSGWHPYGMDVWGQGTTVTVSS

In the case of “A0A0E3SZN6_TRIUA: omega-gliadin protein of Triticum urartu (SEQ ID NO:1), produced recombinantly in E. coli (QPQQPYP)”, in the experiment with chymotrypsin, the “processing of the 9-mer core by chymotrypsin proteolysis” value was “no destructive processing was observed of the postulated novel 9-mer core peptide”.
As for “LQLQPFPQPELPYPQPELPYPQPELPYPQPQPF (SEQ ID NO:55) [33-mer, reference compound]”, in experiment [1], the “expansion of IFN-γ positive cells in the CD3+/CD4− cell population” value was “not seen”; the “expansion of IFN-γ positive CD4 T cells, CeD donor” value was determined as 4.2%; the “responses in healthy controls” value is “no responses”. Besides, in experiment [1] (setting [3]), the “peptide reactivity, CeD donor 585” value is given as “appeared to favor” and the “peptide reactivity, CeD donor 595” value is given as “about equal on both”. In experiment [1] (FIG. 15A), the “presence of response in tested CeD PBMC material” value is given as 2/3. In addition, the “expansion of IFN-γ positive CD4 T cells, healthy control” value in experiment [2] is reported as “no such expansion”.
As for “PQPELPYPQPE (SEQ ID NO:57) [DQ2.5-glia-α2, reference compound]”, the “binding of 107 antibody to peptide-pulsed Raji cells (FACS)” value (“binding of 107 antibody” below) in the experiment with 107 antibody is “No binding”. Besides, in the experiment on 4.7C antibody, the “binding of 4.7C antibody to peptide-pulsed Raji cells (FACS)” value (“binding of 4.7C antibody” below) is “No binding”.
Turning to PQQPYPEQEQPYGT (SEQ ID NO:63) [EE], the “binding of 107 antibody” value in the experiment with 107 antibody is given as “bind well”. The “binding of 4.7C antibody” value with 4.7C antibody is “bind well”.
For “PQQPYPEQQQPYGT (SEQ ID NO:62) [form of the peptide with E at position 4 of the 9-mer]”, the “binding of 107 antibody” value with 107 antibody is “not”.
As to PQQPYPQQEQPYGT (SEQ ID NO:29), the “binding of 107 antibody” value in the experiment on 107 antibody is recorded as “bind well”. Also, the “binding of 4.7C antibody” value in the experiment with 4.7C antibody is recorded as “bind well”.
For PQQPYPQQQQPYGT (SEQ ID NO:24), the “binding of 107 antibody” value with 107 antibody is “not”.
Regarding “PYPQQEQPY (SEQ ID NO:25) [p6 deamidated 9-mer]”, the “binding of 107 antibody” value in the experiment with 107 antibody was “no binding”. Moreover, the “binding of 4.7C antibody” value in the experiment with 4.7C antibody is given as “no binding”.
As to “QPQQPYPQQEQPYGTSL (SEQ ID NO:30) [A0A0E3SZN6 peptide]”, in experiment [1], the “expansion of IFN-γ positive cells in the CD3+/CD4− cell population” value is on record as “not seen”; the “expansion of IFN-γ positive CD4 T cells, CeD donor” value was determined as 2.8%; the “responses in healthy controls” value was “no responses”. In experiment [1] (setting [3]), the “peptide reactivity, CeD donor 600” value is recorded as “appeared to favor” and the “peptide reactivity, CeD donor 595” value is “about equal on both”. The “presence of response in tested CeD PBMC material” value in experiment [1] (FIG. 15A) is 2/3. The “expansion of IFN-γ positive CD4 T cells, healthy control” value in experiment [2] was “no such expansion”.
